Here are results for one compound from PubChem BioAssay AID651980 (The Scripps Research Institute Molecular Screening Center, 2013).

Holding throughout (experiment): PubChem AID 651980
For one assay, the system named is AADACL1. The conditions noted are these: HEK293T in situ, ABPP-SILAC LC-MS/MS, NHU5 probe, at 5 µM, active compounds read low.
Another assay has as its system ABHD10. The conditions noted are these: HEK293T in situ, ABPP-SILAC LC-MS/MS, NHU5 probe, at 5 µM, active compounds read low.
In the next assay the test system is ABHD12. The conditions noted are these: HEK293T in situ, ABPP-SILAC LC-MS/MS, NHU5 probe, at 5 µM, active compounds read low.
The subject of a further assay is ABHD6. The conditions noted are these: HEK293T in situ, ABPP-SILAC LC-MS/MS, NHU5 probe, at 5 µM, active compounds read low.
The target in assay [1] is Acyl-protein thioesterase 1 (Homo sapiens) (UniProt O75608). The conditions noted are these: HEK293T in situ, ABPP-SILAC LC-MS/MS, NHU5 probe; LYPLA1; at 5 µM; active compounds read low.
Assay [2] concerns the target Acyl-protein thioesterase 2 (Homo sapiens) (UniProt O95372). The conditions noted are these: HEK293T in situ, ABPP-SILAC LC-MS/MS, NHU5 probe; LYPLA2; at 5 µM; active compounds read low.
Assay [3] addresses Acylamino-acid-releasing enzyme (Homo sapiens) (UniProt P13798). The conditions noted are these: HEK293T in situ, ABPP-SILAC LC-MS/MS, NHU5 probe; APEH; at 5 µM; active compounds read low.
The next assay has as its system CTSA. The conditions noted are these: HEK293T in situ, ABPP-SILAC LC-MS/MS, NHU5 probe, at 5 µM, active compounds read low.
The target of assay [4] is Dipeptidyl peptidase 9 (Homo sapiens) (UniProt Q86TI2). The conditions noted are these: HEK293T in situ, ABPP-SILAC LC-MS/MS, NHU5 probe; DPP9; at 5 µM; active compounds read low.
The test system of the next assay is ESD. The conditions noted are these: HEK293T in situ, ABPP-SILAC LC-MS/MS, NHU5 probe, at 5 µM, active compounds read low.
For assay [5], the target named is Fatty acid synthase (Homo sapiens) (UniProt P49327). The conditions noted are these: HEK293T in situ, ABPP-SILAC LC-MS/MS, NHU5 probe; FASN; at 5 µM; active compounds read low.
In another assay the test system is LYPLAL1. The conditions noted are these: HEK293T in situ, ABPP-SILAC LC-MS/MS, NHU5 probe, at 5 µM, active compounds read low.
Another assay has as its system MGLL. The conditions noted are these: HEK293T in situ, ABPP-SILAC LC-MS/MS, NHU5 probe, at 5 µM, active compounds read low.
A further assay deals with PLA2G4A. The conditions noted are these: HEK293T in situ, ABPP-SILAC LC-MS/MS, NHU5 probe, at 5 µM, active compounds read low.
The next assay relates to PNPLA6. The conditions noted are these: HEK293T in situ, ABPP-SILAC LC-MS/MS, NHU5 probe, at 5 µM, active compounds read low.
A further assay concerns PREP. The conditions noted are these: HEK293T in situ, ABPP-SILAC LC-MS/MS, NHU5 probe, at 5 µM, active compounds read low.
For assay [6], the target named is Protein phosphatase methylesterase 1 (Homo sapiens) (UniProt Q9Y570). The conditions noted are these: HEK293T in situ, ABPP-SILAC LC-MS/MS, NHU5 probe; PPME1; at 5 µM; active compounds read low.
The subject of another assay is TPP2. The conditions noted are these: HEK293T in situ, ABPP-SILAC LC-MS/MS, NHU5 probe, at 5 µM, active compounds read low.

Active and inactive are the calls of the source. How the calls were made is not given here.

Dipeptidyl peptidase 9 (Homo sapiens), sequence (Q86TI2 whole entry, looked up): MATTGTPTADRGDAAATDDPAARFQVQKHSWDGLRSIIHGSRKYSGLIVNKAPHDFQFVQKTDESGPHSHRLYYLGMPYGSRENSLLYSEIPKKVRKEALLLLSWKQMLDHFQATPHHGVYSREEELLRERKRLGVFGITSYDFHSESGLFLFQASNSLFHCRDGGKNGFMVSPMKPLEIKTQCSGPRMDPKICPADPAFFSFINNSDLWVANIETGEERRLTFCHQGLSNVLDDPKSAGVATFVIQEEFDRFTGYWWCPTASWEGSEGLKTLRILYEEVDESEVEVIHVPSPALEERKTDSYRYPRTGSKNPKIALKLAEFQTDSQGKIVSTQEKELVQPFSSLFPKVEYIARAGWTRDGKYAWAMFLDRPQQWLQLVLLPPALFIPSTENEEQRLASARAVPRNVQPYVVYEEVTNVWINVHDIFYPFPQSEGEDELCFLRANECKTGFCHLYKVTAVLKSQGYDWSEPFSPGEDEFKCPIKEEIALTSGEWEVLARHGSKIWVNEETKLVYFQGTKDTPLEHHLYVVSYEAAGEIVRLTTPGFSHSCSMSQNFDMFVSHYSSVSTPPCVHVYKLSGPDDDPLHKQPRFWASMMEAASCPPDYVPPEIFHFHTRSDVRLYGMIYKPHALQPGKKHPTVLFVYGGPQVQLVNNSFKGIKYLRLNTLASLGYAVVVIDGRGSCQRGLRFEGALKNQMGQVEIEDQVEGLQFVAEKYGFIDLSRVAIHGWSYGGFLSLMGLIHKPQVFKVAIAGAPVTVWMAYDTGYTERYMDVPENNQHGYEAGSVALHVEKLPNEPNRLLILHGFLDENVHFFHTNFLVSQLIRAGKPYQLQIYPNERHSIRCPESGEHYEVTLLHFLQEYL
Acyl-protein thioesterase 1 (Homo sapiens), sequence (O75608 whole entry, looked up): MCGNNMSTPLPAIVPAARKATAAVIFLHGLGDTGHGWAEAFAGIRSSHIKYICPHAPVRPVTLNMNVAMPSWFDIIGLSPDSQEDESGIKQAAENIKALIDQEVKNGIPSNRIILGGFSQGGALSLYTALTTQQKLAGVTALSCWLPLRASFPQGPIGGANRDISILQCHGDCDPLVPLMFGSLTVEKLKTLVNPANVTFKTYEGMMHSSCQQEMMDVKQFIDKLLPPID
Acyl-protein thioesterase 2 (Homo sapiens), sequence (O95372 whole entry, looked up): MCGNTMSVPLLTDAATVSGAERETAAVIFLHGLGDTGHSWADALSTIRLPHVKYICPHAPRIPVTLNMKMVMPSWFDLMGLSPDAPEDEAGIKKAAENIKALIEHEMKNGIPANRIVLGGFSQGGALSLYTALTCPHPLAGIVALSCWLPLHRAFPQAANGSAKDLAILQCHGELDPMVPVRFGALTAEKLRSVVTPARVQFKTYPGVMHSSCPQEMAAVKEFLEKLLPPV
Acylamino-acid-releasing enzyme (Homo sapiens), sequence (P13798 whole entry, looked up): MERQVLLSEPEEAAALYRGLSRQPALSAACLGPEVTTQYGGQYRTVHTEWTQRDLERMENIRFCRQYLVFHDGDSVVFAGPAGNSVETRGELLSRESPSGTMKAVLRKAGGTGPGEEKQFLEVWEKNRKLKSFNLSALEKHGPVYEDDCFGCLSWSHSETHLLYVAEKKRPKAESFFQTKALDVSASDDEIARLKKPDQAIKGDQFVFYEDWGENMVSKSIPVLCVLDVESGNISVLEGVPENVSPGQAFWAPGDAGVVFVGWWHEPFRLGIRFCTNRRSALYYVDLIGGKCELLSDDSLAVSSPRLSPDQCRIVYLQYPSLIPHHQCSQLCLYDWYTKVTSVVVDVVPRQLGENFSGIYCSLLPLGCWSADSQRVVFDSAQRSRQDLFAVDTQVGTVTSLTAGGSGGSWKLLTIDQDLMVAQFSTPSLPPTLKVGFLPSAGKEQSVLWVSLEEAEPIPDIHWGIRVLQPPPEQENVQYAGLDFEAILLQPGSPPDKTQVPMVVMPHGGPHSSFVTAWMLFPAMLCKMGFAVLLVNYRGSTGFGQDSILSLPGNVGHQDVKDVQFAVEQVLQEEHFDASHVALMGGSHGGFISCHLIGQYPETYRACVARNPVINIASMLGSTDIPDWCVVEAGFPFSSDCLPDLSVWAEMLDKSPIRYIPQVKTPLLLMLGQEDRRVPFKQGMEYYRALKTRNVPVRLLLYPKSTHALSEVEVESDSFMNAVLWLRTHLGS
Protein phosphatase methylesterase 1 (Homo sapiens), sequence (Q9Y570 whole entry, looked up): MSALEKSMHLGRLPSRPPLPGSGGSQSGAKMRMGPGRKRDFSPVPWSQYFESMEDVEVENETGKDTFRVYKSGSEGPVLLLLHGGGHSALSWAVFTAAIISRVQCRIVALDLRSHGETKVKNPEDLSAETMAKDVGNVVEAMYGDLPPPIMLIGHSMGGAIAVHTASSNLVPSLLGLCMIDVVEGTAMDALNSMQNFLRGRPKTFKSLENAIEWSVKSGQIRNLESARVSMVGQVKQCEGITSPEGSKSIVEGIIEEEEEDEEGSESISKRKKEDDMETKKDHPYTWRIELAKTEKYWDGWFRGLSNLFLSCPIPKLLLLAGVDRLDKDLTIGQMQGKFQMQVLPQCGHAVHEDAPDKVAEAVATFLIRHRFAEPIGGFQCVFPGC
Fatty acid synthase (Homo sapiens), sequence (P49327 whole entry, looked up): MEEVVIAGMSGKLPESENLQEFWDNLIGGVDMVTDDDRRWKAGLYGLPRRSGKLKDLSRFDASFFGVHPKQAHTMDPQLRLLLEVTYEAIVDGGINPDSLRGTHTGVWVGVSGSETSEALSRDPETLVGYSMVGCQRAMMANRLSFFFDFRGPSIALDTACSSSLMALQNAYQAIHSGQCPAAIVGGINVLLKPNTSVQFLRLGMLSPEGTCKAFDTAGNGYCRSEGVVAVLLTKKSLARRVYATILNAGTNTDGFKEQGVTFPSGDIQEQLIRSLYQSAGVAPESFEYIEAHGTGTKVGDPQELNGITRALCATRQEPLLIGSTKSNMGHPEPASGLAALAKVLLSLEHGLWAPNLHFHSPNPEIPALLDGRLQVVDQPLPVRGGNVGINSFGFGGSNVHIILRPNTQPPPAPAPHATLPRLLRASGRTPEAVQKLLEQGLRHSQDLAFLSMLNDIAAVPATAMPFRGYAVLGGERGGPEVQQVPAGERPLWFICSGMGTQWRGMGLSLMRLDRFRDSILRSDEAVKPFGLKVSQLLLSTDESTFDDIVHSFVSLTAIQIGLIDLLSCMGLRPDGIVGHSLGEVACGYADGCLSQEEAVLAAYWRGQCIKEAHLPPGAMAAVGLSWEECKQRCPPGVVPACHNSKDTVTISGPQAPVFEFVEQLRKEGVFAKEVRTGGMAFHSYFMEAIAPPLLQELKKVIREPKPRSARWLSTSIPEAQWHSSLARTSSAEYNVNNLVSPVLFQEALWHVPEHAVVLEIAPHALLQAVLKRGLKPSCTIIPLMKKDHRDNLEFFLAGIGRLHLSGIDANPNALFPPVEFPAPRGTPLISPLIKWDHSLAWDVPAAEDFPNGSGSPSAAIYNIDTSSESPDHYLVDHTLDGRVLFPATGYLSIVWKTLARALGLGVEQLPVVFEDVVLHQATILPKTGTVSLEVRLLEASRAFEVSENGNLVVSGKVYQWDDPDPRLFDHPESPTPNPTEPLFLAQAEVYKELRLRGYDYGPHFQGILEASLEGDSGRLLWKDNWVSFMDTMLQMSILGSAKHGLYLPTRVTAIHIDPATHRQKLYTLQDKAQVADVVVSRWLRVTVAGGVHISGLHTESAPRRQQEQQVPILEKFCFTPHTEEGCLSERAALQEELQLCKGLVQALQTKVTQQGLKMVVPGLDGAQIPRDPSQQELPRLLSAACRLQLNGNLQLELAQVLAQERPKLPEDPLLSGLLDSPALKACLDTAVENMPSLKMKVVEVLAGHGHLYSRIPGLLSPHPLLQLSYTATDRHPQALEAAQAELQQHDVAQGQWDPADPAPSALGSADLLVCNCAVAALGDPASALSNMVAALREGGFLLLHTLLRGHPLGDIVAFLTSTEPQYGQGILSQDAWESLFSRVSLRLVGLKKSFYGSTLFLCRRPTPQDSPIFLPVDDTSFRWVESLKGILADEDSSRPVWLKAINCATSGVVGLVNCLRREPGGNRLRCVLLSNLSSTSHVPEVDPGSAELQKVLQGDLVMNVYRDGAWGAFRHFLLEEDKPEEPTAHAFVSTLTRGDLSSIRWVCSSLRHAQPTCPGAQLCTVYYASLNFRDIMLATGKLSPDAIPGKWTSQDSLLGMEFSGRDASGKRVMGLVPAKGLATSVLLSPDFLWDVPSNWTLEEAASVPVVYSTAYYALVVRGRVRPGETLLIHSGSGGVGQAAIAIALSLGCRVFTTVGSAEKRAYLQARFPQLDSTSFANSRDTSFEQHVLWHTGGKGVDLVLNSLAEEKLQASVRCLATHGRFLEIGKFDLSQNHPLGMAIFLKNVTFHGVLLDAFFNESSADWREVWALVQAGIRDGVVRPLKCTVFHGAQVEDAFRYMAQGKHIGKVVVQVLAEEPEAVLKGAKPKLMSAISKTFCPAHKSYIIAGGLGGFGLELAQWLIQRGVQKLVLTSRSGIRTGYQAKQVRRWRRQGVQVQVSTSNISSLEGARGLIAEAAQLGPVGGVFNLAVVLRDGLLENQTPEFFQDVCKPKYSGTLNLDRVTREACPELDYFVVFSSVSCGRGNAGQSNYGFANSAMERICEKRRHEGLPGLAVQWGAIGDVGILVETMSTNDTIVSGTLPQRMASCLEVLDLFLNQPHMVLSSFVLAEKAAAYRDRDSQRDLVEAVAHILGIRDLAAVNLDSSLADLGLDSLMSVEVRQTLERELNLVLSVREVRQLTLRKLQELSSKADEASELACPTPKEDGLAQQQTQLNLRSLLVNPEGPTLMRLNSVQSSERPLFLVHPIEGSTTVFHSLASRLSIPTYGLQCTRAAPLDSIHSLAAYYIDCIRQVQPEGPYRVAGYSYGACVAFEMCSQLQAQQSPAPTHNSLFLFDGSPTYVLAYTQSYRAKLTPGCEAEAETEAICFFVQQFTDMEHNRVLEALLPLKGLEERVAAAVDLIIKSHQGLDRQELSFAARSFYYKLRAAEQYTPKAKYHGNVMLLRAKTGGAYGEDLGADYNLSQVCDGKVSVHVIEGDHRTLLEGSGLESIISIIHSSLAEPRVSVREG

`COc1ccc(N2CCN(C(=O)c3cc4c(s3)-c3ccccc3S(=O)(=O)C4)CC2)cc1`: the remaining activity ratio (inhibitor/DMSO) in the assay with AADACL1 was 1.14 (inactive); in the assay on ABHD10 it was 1.21 (inactive); in the assay with ABHD12, 1.24 (inactive); with ABHD6 it was 1.37 (inactive); in assay [1], 1.12 (inactive); in [2], 0.25. The remaining activity ratio (inhibitor/DMSO) was 1.23 (inactive) in assay [3]; 1.29 (inactive) with CTSA; 1.17 (inactive) in assay [4]; 1.17 (inactive) in the assay on ESD; 1.15 (inactive) in assay [5]; 1.23 (inactive) in the assay on LYPLAL1. Moreover, the remaining activity ratio (inhibitor/DMSO) with MGLL was 0.94 (inactive); in the assay on PLA2G4A, 1.44 (inactive); in the assay with PNPLA6, 1.27 (inactive); in the assay on PREP it was 1.05 (inactive); in assay [6] it was 1.13 (inactive); in the assay with TPP2 it was 1.1 (inactive).
